Data on 13 compounds can be found in patent US20240424113A1, “CONJUGATES COMPRISING ANTIFUNGALS AND HEAT SHOCK PROTEIN 90 (HSP90) INHIBITORS AND METHODS OF USE THEREOF” (Bright Angel Therapeutics Inc., priority 2021, published 2024).

Values after ≈ are worked out from the molar mass of the structure shown.

In data set [1] the target is Hsp90 Nuclear Binding Domain (NBD) (Candida albicans (strain SC5314 / ATCC MYA-2876) (Yeast), UniProt P46598). Nature of the data set: Surface Plasmon Resonance (SPR) binding, C. albicans Hsp90 NBD. The conditions noted are these: biotinylated Hsp90 NBD on streptavidin chip, 25° C., 1:1 binding model. The method, then:
(§1) Surface Plasmon Resonance (SPR) Experiments. SPR experiments were performed on a Biacore S200 instrument at 25° C. Biotinylated Hsp90 Nuclear Binding Domain (NBD) was diluted to 40 μg/mL and immobilized on a streptavidin chip (Sensor Chip SA, GE Healthcare) at a density of 2000-2500 response units (RU) on the biosensor surface.
(§2) Recombinant Hsp90 NBDs were expressed and purified as previously described (Whitesell et al., Nat Commun 10, 402 (2019)) with the following modification; Hsp90 NBD expression constructs were modified to encode a C-terminal AviTag for site-specific on-column biotinylation with a BirA biotin-ligase kit (Avidity LLC; BirA-500). Stock protein solutions in 50% glycerol were stored at −20° C. until dilution into relevant buffers. Binding experiments were done in HBS-P (0.01 M HEPES, pH 7.4, 0.15 M NaCl, 0.005% v/v surfactant P20, GE Healthcare) with 2% DMSO at flow rate of 40 μL/min. Test compounds (dilution series) were injected with a 60 s association time and 600 s dissociation time. Resulting sensorgrams were analyzed with a fit to a 1:1 binding model, using BIA evaluation software.

Data set [2] has as its target Hsp90 Nuclear Binding Domain (NBD) (Aspergillus fumigatus, UniProt P40292). Put plainly: Surface Plasmon Resonance (SPR) binding, A. fumigatus Hsp90 NBD. The conditions noted are these: biotinylated Hsp90 NBD on streptavidin chip, 25° C., 1:1 binding model; NB undefined. The method, then: as §1, §2
A further data set deals with CaCl2. Nature of the data set: Antifungal sensitivity testing (broth microdilution MIC). The data set is classed as cell-based. The conditions noted are these: 96-well broth microdilution. The method, then:
Antifungal Sensitivity Testing. Minimum inhibitory concentrations (MICs) were determined in flat bottom, 96-well plate format using a modified broth microdilution protocol as previously described (Singh et al., PLoS Pathog. 5, e1000532 (2009); LaFayette et al., PLoS Pathog. 6, 79-80 (2010)). Compounds were formulated in dimethyl sulfoxide (DMSO, Sigma-Aldrich Co.); fluconazole was dissolved in sterile ddH2O. Each compound was tested in duplicate in at least two independent experiments. To test for fungicidal activity, cultures from MIC plates were spotted on YPD agar plates using a spotter (Frogger, V&P Scientific, Inc.). Plates were photographed after 24 h of incubation at 30° C.

Another data set relates to HepG2 cells. Nature of the data set: Mammalian cell toxicity (Cell Titer-Glo). The data set is classed as cell-based. The method, then: Mammalian Cell Toxicity. HepG2 cells were seeded overnight at 500 cells/well in 384-well plate, then incubated with compounds (10-point concentration titration) for 48 h. Cell Titer-Glo® reagent ([…]) was added to each well and after 10-minute incubation at room temperature the luminescent signal was measured using an Envision plate reader (Perkin Elmer).
In general terms: Cellular ATP, detected with luciferase, serves as a proxy for viable cell number.

Sequence of Hsp90 Nuclear Binding Domain (NBD) (Aspergillus fumigatus, UniProt P40292) (P40292 whole entry, looked up, the tested form may be a part): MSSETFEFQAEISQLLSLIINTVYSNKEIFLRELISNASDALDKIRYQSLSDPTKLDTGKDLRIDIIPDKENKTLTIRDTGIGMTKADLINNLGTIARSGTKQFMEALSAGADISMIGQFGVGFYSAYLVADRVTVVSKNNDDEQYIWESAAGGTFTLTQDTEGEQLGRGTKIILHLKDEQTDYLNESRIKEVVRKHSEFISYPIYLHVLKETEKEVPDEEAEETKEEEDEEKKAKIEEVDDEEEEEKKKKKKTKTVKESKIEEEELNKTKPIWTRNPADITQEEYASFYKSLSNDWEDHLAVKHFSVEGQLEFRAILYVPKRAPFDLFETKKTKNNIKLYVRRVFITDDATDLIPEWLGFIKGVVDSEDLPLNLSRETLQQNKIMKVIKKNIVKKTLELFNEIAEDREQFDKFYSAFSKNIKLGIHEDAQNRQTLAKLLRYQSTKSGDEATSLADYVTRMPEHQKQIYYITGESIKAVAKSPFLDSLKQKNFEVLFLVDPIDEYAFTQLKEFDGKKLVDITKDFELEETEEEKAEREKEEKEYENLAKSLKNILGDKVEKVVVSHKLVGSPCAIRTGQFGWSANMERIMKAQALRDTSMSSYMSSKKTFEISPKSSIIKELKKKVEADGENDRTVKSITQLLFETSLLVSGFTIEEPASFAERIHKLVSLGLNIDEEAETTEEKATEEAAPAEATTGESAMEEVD
Sequence of Hsp90 Nuclear Binding Domain (NBD) (Candida albicans (strain SC5314 / ATCC MYA-2876) (Yeast), UniProt P46598) (P46598 1-218 limits assumed): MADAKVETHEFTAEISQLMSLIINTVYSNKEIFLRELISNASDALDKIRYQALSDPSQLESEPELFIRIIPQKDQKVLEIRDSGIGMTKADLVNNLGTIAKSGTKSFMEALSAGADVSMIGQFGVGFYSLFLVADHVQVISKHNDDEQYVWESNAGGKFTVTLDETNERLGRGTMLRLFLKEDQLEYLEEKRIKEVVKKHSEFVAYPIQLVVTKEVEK

For the compound `Nc1nc2sc(C(=O)NC3CCN(CC(O)(Cn4cncn4)c4ccc(F)cc4F)CC3)cc2n(-c2ccc3c(c2)N(c2ccccc2)CCO3)c1=O` (stereo not drawn) [Compound I-4, 3-amino-N-(1-(2-(2,4-difluorophenyl)-2-hydroxy-3-(1H-1,2,4-triazol-1-yl)propyl)piperidin-4-yl)-2-oxo-1-(4-phenyl-3,4-dihydro-2H-benzo[b][1,4]oxazin-6-yl)-1,2-dihydrothieno[2,3-b]pyrazine-6-carboxamide], the Kd was 28 nM in data set [1] and 113 nM in data set [2]. Further, the MIC50 in the data set with CaCl2 (Table 4) and with CaCl2 (Table 6) was 0.75 µM (≈ 0.555 µg/mL) in each case. Also, the “HepG2 MIC50” value with HepG2 cells (Table 5, 48 h incubation) is >10 µM; with HepG2 cells (Table 6, 48 h incubation), >10 µM.
As to `Nc1nc2sc(C(=O)N[C@@H]3CCN(C[C@@](O)(Cn4cncn4)c4ccc(F)cc4F)C3)cc2n(-c2ccc3c(c2)N(c2ccccc2)CCO3)c1=O` [Compound I-11, 3-amino-N-((R)-1-((R)-2-(2,4-difluorophenyl)-2-hydroxy-3-(1H-1,2,4-triazol-1-yl)propyl)pyrrolidin-3-yl)-2-oxo-1-(4-phenyl-3,4-dihydro-2H-benzo[b][1,4]oxazin-6-yl)-1,2-dihydrothieno[2,3-b]pyrazine-6-carboxamide], the Kd worked out at 0.8 nM in data set [1] and 24.8 nM in data set [2]. The MIC50 against CaCl2 (Table 4) and in the data set on CaCl2 (Table 6) was 2.5 µM (≈ 1.81 µg/mL) each time. Besides, in the data set with HepG2 cells (Table 6, 48 h incubation), the “HepG2 MIC50” value is 2.4 µM.
Regarding `Nc1nc2sc(CN[C@@H]3CCN(CCC(O)(Cn4cncn4)c4ccc(F)cc4F)C3)cc2n(-c2ccc3c(c2)N(c2ccccc2)CCO3)c1=O` (stereo partly drawn) [Compound I-120, 3-amino-6-((((3R)-1-(3-(2,4-difluorophenyl)-3-hydroxy-4-(1H-1,2,4-triazol-1-yl)butyl)pyrrolidin-3-yl)amino)methyl)-1-(4-phenyl-3,4-dihydro-2H-benzo[b][1,4]oxazin-6-yl)thieno[2,3-b]pyrazin-2(1H)-one], the Kd in data set [1] was found to be 179 nM; in data set [2] it was 265 nM. The compound also had an MIC50 in the data set on CaCl2 (Table 4) of 17.5 µM (≈ 12.7 µg/mL).
The like results for `Nc1nc2sc(CN[C@@H]3CCN(CC[C@@](O)(Cn4cncn4)c4ccc(F)cc4F)C3)cc2n(-c2ccc3c(c2)N(c2ccccc2)CCO3)c1=O` [Compound I-123, 3-amino-6-((((R)-1-((S)-3-(2,4-difluorophenyl)-3-hydroxy-4-(1H-1,2,4-triazol-1-yl)butyl)pyrrolidin-3-yl)amino)methyl)-1-(4-phenyl-3,4-dihydro-2H-benzo[b][1,4]oxazin-6-yl)thieno[2,3-b]pyrazin-2(1H)-one] were, in that order, 145 nM, 238 nM and 11.5 µM (≈ 8.35 µg/mL).
Taken in the same sequence, the figures for `Nc1nc2sc(CN[C@H]3[C@@H]4CN(C[C@](O)(Cn5cncn5)c5ccc(F)cc5F)C[C@@H]43)cc2n(-c2ccc3c(c2)N(c2ccccc2)CCO3)c1=O` [Compound I-125, 3-amino-6-((((1R,5S,6R)-3-((S)-2-(2,4-difluorophenyl)-2-hydroxy-3-(1H-1,2,4-triazol-1-yl)propyl)-3-azabicyclo[3.1.0]hexan-6-yl)amino)methyl)-1-(4-phenyl-3,4-dihydro-2H-benzo[b][1,4]oxazin-6-yl)thieno[2,3-b]pyrazin-2(1H)-one] were 575 nM, 886 nM and 5.75 µM (≈ 4.16 µg/mL).
Taken in the same sequence, the figures for `Nc1nc2sc(CN[C@H]3[C@@H]4CN(C[C@@](O)(Cn5cncn5)c5ccc(F)cc5F)C[C@@H]43)cc2n(-c2ccc3c(c2)N(c2ccccc2)CCO3)c1=O` [Compound I-127, 3-amino-6-((((1R,5S,6S)-3-((R)-2-(2,4-difluorophenyl)-2-hydroxy-3-(1H-1,2,4-triazol-1-yl)propyl)-3-azabicyclo[3.1.0]hexan-6-yl)amino)methyl)-1-(4-phenyl-3,4-dihydro-2H-benzo[b][1,4]oxazin-6-yl)thieno[2,3-b]pyrazin-2(1H)-one] were 699 nM, 1190 nM and 6.25 µM (≈ 4.52 µg/mL).
Consider `Nc1nc2sc(CNC3CCN(C(=O)C[C@@](O)(Cn4cncn4)c4ccc(F)cc4F)CC3)cc2n(-c2ccc3c(c2)N(c2ccccc2)CCO3)c1=O` [Compound I-129, (S)-3-amino-6-(((1-(3-(2,4-difluorophenyl)-3-hydroxy-4-(1H-1,2,4-triazol-1-yl)butanoyl)piperidin-4-yl)amino)methyl)-1-(4-phenyl-3,4-dihydro-2H-benzo[b][1,4]oxazin-6-yl)thieno[2,3-b]pyrazin-2(1H)-one], for which the Kd in data set [1] is 546 nM; in data set [2], 698 nM. The MIC50 with CaCl2 (Table 4) was 7 µM (≈ 5.28 µg/mL).
As for `Nc1nc2sc(CNCC3CCN(C[C@](O)(Cn4cncn4)c4ccc(F)cc4F)CC3)cc2n(-c2ccc3c(c2)N(c2ccccc2)CCO3)c1=O` [Compound I-131, (S)-3-amino-6-((((1-(2-(2,4-difluorophenyl)-2-hydroxy-3-(1H-1,2,4-triazol-1-yl)propyl)piperidin-4-yl)methyl)amino)methyl)-1-(4-phenyl-3,4-dihydro-2H-benzo[b][1,4]oxazin-6-yl)thieno[2,3-b]pyrazin-2(1H)-one], the MIC50 against CaCl2 (Table 4) and in the data set on CaCl2 (Table 6) was 1.25 µM (≈ 0.925 µg/mL) throughout. For the same compound, the “HepG2 MIC50” value in the data set with HepG2 cells (Table 5, 48 h incubation) stood at 9 µM; in the data set on HepG2 cells (Table 6, 48 h incubation) it was 9 µM.
For `Nc1nc2sc(CNC3CCN(CC(O)(Cn4cncn4)c4ccc(F)cc4F)CC3(F)F)cc2n(-c2ccc3c(c2)N(c2ccccc2)CCO3)c1=O` (stereo not drawn) [Compound I-137, 3-amino-6-(((1-(2-(2,4-difluorophenyl)-2-hydroxy-3-(1H-1,2,4-triazol-1-yl)propyl)-3,3-difluoropiperidin-4-yl)amino)methyl)-1-(4-phenyl-3,4-dihydro-2H-benzo[b][1,4]oxazin-6-yl)thieno[2,3-b]pyrazin-2(1H)-one], the equilibrium dissociation constant (Kd) in data set [1] amounted to 54.1 nM; in data set [2], 127 nM. The MIC50 in the data set with CaCl2 (Table 4) came out at 0.78 µM (≈ 0.594 µg/mL).
Turning to `Nc1nc2sc(CNC(=O)C3CCN(CC(O)(Cn4cncn4)c4ccc(F)cc4F)CC3)cc2n(-c2ccc3c(c2)N(c2ccccc2)CCO3)c1=O` (stereo not drawn) [Compound I-140, N-((3-amino-2-oxo-1-(4-phenyl-3,4-dihydro-2H-benzo[b][1,4]oxazin-6-yl)-1,2-dihydrothieno[2,3-b]pyrazin-6-yl)methyl)-1-(2-(2,4-difluorophenyl)-2-hydroxy-3-(1H-1,2,4-triazol-1-yl)propyl)piperidine-4-carboxamide], the Kd was found to be 746 nM in data set [1] and 434 nM in data set [2]. For the same compound, the MIC50 against CaCl2 (Table 4) was found to be 6.3 µM (≈ 4.75 µg/mL).
The like results for `Nc1nc2sc(CNC3CCN(CC(O)(Cn4cncn4)c4ccc(F)cc4F)C(=O)C3)cc2n(-c2ccc3c(c2)N(c2ccccc2)CCO3)c1=O` (stereo not drawn) [Compound I-141, 3-amino-6-(((1-(2-(2,4-difluorophenyl)-2-hydroxy-3-(1H-1,2,4-triazol-1-yl)propyl)-2-oxopiperidin-4-yl)amino)methyl)-1-(4-phenyl-3,4-dihydro-2H-benzo[b][1,4]oxazin-6-yl)thieno[2,3-b]pyrazin-2(1H)-one] were, in that order, 342 nM, 620 nM and 6.3 µM (≈ 4.66 µg/mL).
For the compound `Nc1nc2sc(C(=O)NC3CCN(CC(O)(Cn4cncn4)c4ccccn4)CC3)cc2n(-c2ccc3c(c2)N(c2ccccc2)CCO3)c1=O` (stereo not drawn) [Compound I-142, 3-amino-N-(1-(2-hydroxy-2-(pyridin-2-yl)-3-(1H-1,2,4-triazol-1-yl)propyl)piperidin-4-yl)-2-oxo-1-(4-phenyl-3,4-dihydro-2H-benzo[b][1,4]oxazin-6-yl)-1,2-dihydrothieno[2,3-b]pyrazine-6-carboxamide], the dissociation constant (Kd) in data set [1] amounted to 2.4 nM; in data set [2], 34.1 nM. In the data set with CaCl2 (Table 4), this compound came in with an MIC50 of 25 µM (≈ 17.6 µg/mL).
As to `Nc1nc2sc(CNC3CCN(CC(O)(Cn4cncn4)c4ccccc4)CC3)cc2n(-c2ccc3c(c2)N(c2ccccc2)CCO3)c1=O` (stereo not drawn) [Compound I-145, 3-amino-6-(((1-(2-hydroxy-2-phenyl-3-(1H-1,2,4-triazol-1-yl)propyl)piperidin-4-yl)amino)methyl)-1-(4-phenyl-3,4-dihydro-2H-benzo[b][1,4]oxazin-6-yl)thieno[2,3-b]pyrazin-2(1H)-one], the Kd in data set [1] worked out at 114 nM; in data set [2], 161 nM. In addition, the MIC50 in the data set with CaCl2 (Table 4) worked out at 12.5 µM (≈ 8.62 µg/mL).

One may read the Kd as the constant that tells how readily two partners part at equilibrium. By MIC50 is commonly meant the lowest concentration that inhibits either 50% of growth or 50% of the strains tested, depending on the study. The low end stands for higher susceptibility, the high end for lower susceptibility.
